Results as given in paper PMC2001498, “Effects of transplantation and resection of a radiation-induced rat insulinoma on glucose homeostasis and the endocrine pancreas” (British Journal of Cancer, 1986).
Where a name gives a salt, the structure may show the parent alone.

Tested on: pancreatic B cell function
Assay: Plasma insulin response to intraperitoneal arginine after tumour resection
Details: plasma insulin at 0, 30 and 60 min, groups of 6 rats

N=C(N)NCCC[C@H](N)C(=O)O [arginine, arginine hydrochloride]
plasma insulin response to arginine, 1 day after tumour resection (arginine hydrochloride 2 g kg-1 i.p. in 0.9% NaCl, ex-tumour bearing rats 1 day after resection): failed to evoke a plasma insulin response | insulin response to arginine, 12 days after tumour resection (arginine hydrochloride 2 g kg-1 i.p., ex-tumour bearing rats 12 days after resection): impaired
